According to US11180496B2 (Daewoong Pharmaceutical Co., Ltd., priority 2017, dated 2021):

Columns and labels:
BTK = target: T1, BTK (Homo sapiens, UniProt Q06187); experiment: BTK inhibitory activity, ADP-Glo + BTK Kinase enzyme system kit (Promega); format: biochemical; conditions: BTK enzyme 1 ng/uL, ATP 10 uM, 15 min preincubation, luminescence, duplicate
T1 construct: purchased Promega
Summary of the method: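 BTK activity measured by ADP-Glo luminescence: kinase reaction with substrate and 10 uM ATP (final) for 1 h at 30°C, then ADP-Glo reagent 40 min and detection 30 min at 30°C. Run in duplicate; IC50 calculated relative to no-compound and positive controls.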

ITK = target: T2, ITK (Homo sapiens, UniProt Q08881); experiment: ITK inhibitory activity, ADP-Glo + ITK Kinase enzyme system kit (Promega); format: biochemical; conditions: ITK enzyme 0.4 ng/uL, ATP 25 uM, 15 min preincubation, luminescence, duplicate
T2 construct: purchased Promega
T2 sequence (Q08881 1-620): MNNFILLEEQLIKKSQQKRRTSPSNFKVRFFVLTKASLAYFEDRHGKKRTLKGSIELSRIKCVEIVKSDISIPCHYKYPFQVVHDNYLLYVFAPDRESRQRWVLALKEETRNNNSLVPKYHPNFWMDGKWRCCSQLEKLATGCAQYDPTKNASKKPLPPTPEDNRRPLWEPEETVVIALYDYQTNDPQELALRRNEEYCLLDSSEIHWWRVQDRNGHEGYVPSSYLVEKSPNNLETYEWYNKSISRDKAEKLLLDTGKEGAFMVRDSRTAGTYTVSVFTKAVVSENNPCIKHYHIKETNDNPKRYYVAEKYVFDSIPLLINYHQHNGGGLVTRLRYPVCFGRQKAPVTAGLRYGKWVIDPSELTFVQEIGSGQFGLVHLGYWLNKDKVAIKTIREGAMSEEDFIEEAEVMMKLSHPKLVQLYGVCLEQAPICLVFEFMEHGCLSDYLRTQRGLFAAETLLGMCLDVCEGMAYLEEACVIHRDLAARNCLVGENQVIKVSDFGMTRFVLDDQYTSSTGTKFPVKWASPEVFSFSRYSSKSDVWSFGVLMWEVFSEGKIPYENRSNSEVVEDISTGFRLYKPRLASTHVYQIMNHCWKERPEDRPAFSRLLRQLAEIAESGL
Summary of the method: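 ITK activity by ADP-Glo luminescence: substrate and ATP (final 25 uM) reacted 1 h at 30° C, then ADP-Glo reagent 40 min and detection reagent 30 min at 30° C. IC50 from duplicates, normalised to no-compound and enzyme-free controls.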

T1 sequence (Q06187 whole entry): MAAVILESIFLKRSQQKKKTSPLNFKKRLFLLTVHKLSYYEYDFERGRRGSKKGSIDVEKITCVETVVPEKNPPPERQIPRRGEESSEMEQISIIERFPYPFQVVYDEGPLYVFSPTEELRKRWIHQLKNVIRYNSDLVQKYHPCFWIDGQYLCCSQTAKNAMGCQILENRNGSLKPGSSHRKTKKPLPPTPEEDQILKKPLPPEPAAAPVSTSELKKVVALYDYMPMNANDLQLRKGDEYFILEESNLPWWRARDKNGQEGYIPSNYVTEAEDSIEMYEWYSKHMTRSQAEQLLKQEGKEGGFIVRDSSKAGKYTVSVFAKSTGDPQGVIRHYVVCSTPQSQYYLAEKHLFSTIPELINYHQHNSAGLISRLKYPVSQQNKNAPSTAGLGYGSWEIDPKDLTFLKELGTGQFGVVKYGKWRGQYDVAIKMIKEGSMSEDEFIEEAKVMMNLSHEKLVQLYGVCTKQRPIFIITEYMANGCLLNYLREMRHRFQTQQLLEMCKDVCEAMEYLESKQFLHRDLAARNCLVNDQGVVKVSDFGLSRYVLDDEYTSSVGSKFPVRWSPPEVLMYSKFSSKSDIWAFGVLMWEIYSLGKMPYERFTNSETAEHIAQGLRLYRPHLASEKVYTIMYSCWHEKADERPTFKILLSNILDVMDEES

Compound	IC50 (BTK) [nM]	IC50 (ITK) [nM]
C=CC(=O)N1CCC[C@@H](n2nc(-c3ccc(C(=O)Nc4ccccn4)cc3Cl)c3c(N)ncc(C=C)c32)C1 [Example 69, (R)-4-(1-(1-acryloylpiperidin-3-yl)-4-amino-7-vinyl-1H-pyrazolo[4,3-c]pyridin-3-yl)-3-chloro-N-(pyridin-2-yl)benzamide]	2	2.9
C=CC(=O)N1CCC[C@@H](n2nc(-c3ccc(C(=O)Nc4ccccn4)cc3Cl)c3c(N)ncc(-c4cn[nH]c4)c32)C1 [Example 70, (R)-4-(1-(1-acryloylpiperidin-3-yl)-4-amino-7-(1H-pyrazol-4-yl)-1H-pyrazolo[4,3-c]pyridin-3-yl)-3-chloro-N-(pyridin-2-yl)benzamide]	2	5.2
C=CC(=O)N1CCC[C@@H](n2nc(C(=O)Nc3nc4cc(Cl)ccc4o3)c3c(N)nccc32)C1 [Example 71, (R)-1-(1-acryloylpiperidin-3-yl)-4-amino-N-(5-chlorobenzo[d]oxazol-2-yl)-1H-pyrazolo[4,3-c]pyridine-3-carboxamide]	3.4	4.1
C=CC(=O)N1CCC[C@@H](n2nc(C(=O)OC(C)(C)C)c3c(N)nccc32)C1 [Example 72, (R)-tert-butyl 1-(1-acryloylpiperidin-3-yl)-4-amino-1H-pyrazolo[4,3-c]pyridine-3-carboxylate]	88.9	68.2
C=CC(=O)N1CCC[C@@H](n2nc(C(=O)Nc3nc4ccc(Br)cc4o3)c3c(N)nccc32)C1 [Example 73, (R)-1-(1-acryloylpiperidin-3-yl)-4-amino-N-(6-bromobenzo[d]oxazol-2-yl)-1H-pyrazolo[4,3-c]pyridine-3-carboxamide]	32	141
C=CC(=O)N1CCC[C@@H](n2nc(C(=O)Nc3nc4cc(Cl)ccc4o3)c3c(N)ncc(Cl)c32)C1 [Example 74, (R)-1-(1-acryloylpiperidin-3-yl)-4-amino-7-chloro-N-(5-chlorobenzo[d]oxazol-2-yl)-1H-pyrazolo[4,3-c]pyridine-3-carboxamide]	3.3	6.4
C=CC(=O)N1CCC[C@@H](n2nc(C(=O)Nc3nc4ccccc4o3)c3c(N)ncc(Cl)c32)C1 [Example 75, (R)-1-(1-acryloylpiperidin-3-yl)-4-amino-N-(benzo[d]oxazol-2-yl)-7-chloro-1H-pyrazolo[4,3-c]pyridine-3-carboxamide]	2.2	2.4
C=CC(=O)N1CCC[C@@H](n2nc(C(=O)Nc3nc4cc(F)ccc4o3)c3c(N)ncc(Cl)c32)C1 [Example 76, (R)-1-(1-acryloylpiperidin-3-yl)-4-amino-7-chloro-N-(5-fluorobenzo[d]oxazol-2-yl)-1H-pyrazolo[4,3-c]pyridine-3-carboxamide]	1.5	2.1
C=CC(=O)N1CCC[C@@H](n2nc(C(=O)Nc3nc4ccccc4o3)c3c(N)nccc32)C1 [Example 77, (R)-1-(1-acryloylpiperidin-3-yl)-4-amino-N-(benzo[d]oxazol-2-yl)-1H-pyrazolo[4,3-c]pyridine-3-carboxamide]	5	13.1
C=CC(=O)N1CCC[C@@H](n2nc(C(=O)Nc3ccccc3)c3c(N)ncc(Cl)c32)C1 [Example 78, (R)-1-(1-acryloylpiperidin-3-yl)-4-amino-7-chloro-N-phenyl-1H-pyrazolo[4,3-c]pyridine-3-carboxamide]	22.1	27
C=CC(=O)N1CCC[C@@H](n2nc(C(=O)Nc3ccc4c(c3)OCCO4)c3c(N)ncc(Cl)c32)C1 [Example 79, (R)-1-(1-acryloylpiperidin-3-yl)-4-amino-7-chloro-N-(2,3-di hydrobenzo[b][1,4]dioxin-6-yl)-1H-pyrazolo[4,3-c]pyridine-3-carboxamide]	100	54.9
